Columns and labels:
[1] = tested on: Salmonella typhimurium TA100; test: AMES test, mutagenic evaluation in Salmonella typhimurium TA100 strain with/without metabolic activation (S9); format: cell-based
Method: (§1) The procedure was firstly developed by (MARON, D. M. and AMES, B. N. Mut. Res. v. 113, pp. 173-215, 1983)
(§2) For this assay, Salmonella typhimurium TA100 and TA102 strains from the mutagenicity laboratory of the “Faculdade de Ciências Farmacêuticas—UNESP Araraquara” were used. Such strains have the following characteristics: (AMES, 1983)
(§3) The positive controls are mutagenic compounds specific for each strain and test condition, with 25 μL/plate of sodium azide (1.25 μg/plate) and 100 μL of mitomycin (0.5 μg/plate) being the controls for TA100 and TA102, respectively, in the absence of metabolic activation. For assays with metabolic activation, the positive control for TA100 is 50 μL 2-antramine (1.25 μg/plate) and for TA102 it is 50 μL 2-aminofluorene (1.25 μg/plate).
(§4) The preincubation method was used.
(§5) In laminar flow, Salmonella typhimurium (TA100 and TA 102) strains were inoculated individually with a platinum loop, in the respective nutrient broths and maintained at 37° C., under constant stirring (160 rpm) during 14 hours, in order to achieve a density of 1 to 2×10^9 bacteria/mL.
(§6) Different concentrations of the compounds were added into 100 μL of 0.2M phosphate buffer pH 7.4 (or 500 μL of the mixture S9 in metabolic activation assays) and incubated for 20-30 minutes at 37° C. Solutions containing the compounds had DMSO as the solvent. Thereafter, 2 mL of top agar supplemented with traces of histidine and biotin was added, homogenized and plated in glycosylated minimum medium. After solidification of the top agar, the plates were incubated for 48 hours at a 37° C. Then, the counting of the number of revertant colonies per plate was performed. All tested concentrations, positive and negative controls were run in triplicate.
(§7) After 48 hours, the revertant colonies were counted manually, and the protoCOL Colony Counter Version 3.15.630 (1998-2001) SYNBIOSIS LTD system was used for the positive control.
(§8) The final data obtained from the assay was analyzed using the statistical software Salanal (Salmonella Assay Analysis) version 1.0 from the Research Triangle Institute, RTP, North Carolina, USA. Such software allows the dose-response effect to be evaluated by means of analysis of variance (ANOVA-test F) computations between the measurement of the number of revertants at the different tested concentrations (doses) and the negative control, followed by a linear regression. The software model chosen for analyzing the data was Bernstein's (BERNSTEIN, L. et al. Mutat. Res. v. 97, p. 267-281, 1982). The slope of the straight line from the linear portion of the dose-response curve is also provided by this software and corresponds to the number of revertants induced per measurement unit of the analyzed sample.
(§9) From the results, the mutagenicity ratio (MR) was computed for each analyzed dose from each compound. MR is given by the following equation:
(§10) MR=average number of revertants per test plate (spontaneous+induced revertants) […] average number of revertants per plate of the negative control (spontaneous revertants)
(§11) The spontaneous growing means that the number of revertants which developed on the plate, regardless of being induced or not, wherein values higher or equal to 2 are considered as a positive response (VALENT, G. V. et al. Env. Toxicol. Water Quality. v. 8, p. 371-381, 1993).
(§12) The mutagenicity test with metabolic activation system was performed with a microsomal fraction S9 (S9 mix) prepared from a liver homogenizate from Sprague Dawley rats, previously treated with Aroclor 1254, acquired in the freeze-dried form.
(§13) The procedure for this assay is the same, however, instead of the buffer, 500 μL of the S9 mixture should be added.
(§14) The S9 mixture has a viability of 4 hours from preparation when put on ice. The plates are then incubated for 48 hours at 37° C. After the required time has elapsed, the counting of the revertant colonies was carried out. All tested concentrations, positive and negative controls were run in triplicate.

[2] = tested on: Salmonella typhimurium TA102; test: AMES test, mutagenic evaluation in Salmonella typhimurium TA102 strain with/without metabolic activation (S9); format: cell-based
Method: as §1, §2, §3, §4, §5, §6, §7, §8, §9, §10, §11, §12, §13, §14

[3] = tested on: abdominal writhing induced by acetic acid; test: Abdominal writhing assay induced by acetic acid; format: in vivo; conditions: oral, mice, acetic acid 0.1N i.p. after 1 hour, writhings counted during 20 minutes
Method: In order to evaluate the peripheral analgesic activity of the compounds, an abdominal writhing assay induced by acetic acid (Table 6) was carried out. In this assay, we could infer that compound ID has an important analgesic activity, inhibiting abdominal writhing by 66%. […] The analgesic activity may be related to the ability of these compounds to inhibit the cytokine TNFα, since it is known that this would be one of the mechanisms that explain the analgesia of molecules such as thalidomide.
The antinociceptive profile was evaluated through the abdominal writhing assay induced by acetic acid in mice. In this assay, Swiss mice from both genders were used, weighing from 21 to 28 grams, fasted for a time period of about 8 hours. The test substance was administered orally and had, as a carrier, 5% gum arabic. After 1 hour, the administration of acetic acid 0.1N (0.1 mL/10 g weight) was performed in the peritoneal cavity of the animals. Ten minutes after the injection of acetic acid, writhings were counted during 20 minutes.

Nc1ccc(S(=O)(=O)NO)cc1 [Compound IIA, 4-amino-N-hydroxybenzenesulphonamide]
mutagenicity ratio (MR) ([1]; TA 100, +S9, 0.98 μmol/plate): 1.24
number of revertants per plate ([1]; TA 100, +S9, 0.98 μmol/plate): 160 ± 12.4 revertants/plate
mutagenicity ratio (MR) ([1]; TA 100, +S9, 1.96 μmol/plate): 1.36
number of revertants per plate ([1]; TA 100, +S9, 1.96 μmol/plate): 175.7 ± 2 revertants/plate
mutagenicity ratio (MR) ([1]; TA 100, +S9, 3.92 μmol/plate): 1.43
number of revertants per plate ([1]; TA 100, +S9, 3.92 μmol/plate): 185.3 ± 15 revertants/plate
mutagenicity ratio (MR) ([1]; TA 100, +S9, 7.85 μmol/plate): 1.59
number of revertants per plate ([1]; TA 100, +S9, 7.85 μmol/plate): 206 ± 13.6 revertants/plate
mutagenicity ratio (MR) ([1]; TA 100, +S9, 15.7 μmol/plate): 2.74
number of revertants per plate ([1]; TA 100, +S9, 15.7 μmol/plate): 354 ± 6.5 revertants/plate
mutagenicity ratio (MR) ([1]; TA 100, −S9, 0.98 μmol/plate): 0.99
number of revertants per plate ([1]; TA 100, −S9, 0.98 μmol/plate): 146.3 ± 5.1 revertants/plate
mutagenicity ratio (MR) ([1]; TA 100, −S9, 1.96 μmol/plate): 1.23
number of revertants per plate ([1]; TA 100, −S9, 1.96 μmol/plate): 180.5 ± 7.8 revertants/plate
mutagenicity ratio (MR) ([1]; TA 100, −S9, 3.92 μmol/plate): 1.22
number of revertants per plate ([1]; TA 100, −S9, 3.92 μmol/plate): 179 ± 11.3 revertants/plate
mutagenicity ratio (MR) ([1]; TA 100, −S9, 7.85 μmol/plate): 1.17
number of revertants per plate ([1]; TA 100, −S9, 7.85 μmol/plate): 172.7 ± 12.5 revertants/plate
mutagenicity ratio (MR) ([1]; TA 100, −S9, 15.7 μmol/plate): 1.19
number of revertants per plate ([1]; TA 100, −S9, 15.7 μmol/plate): 175 ± 2.8 revertants/plate
concentration above which the number of revertants is reduced by cell toxicity ([1]; with metabolic activation): Above 15.7 μmol/plate
mutagenicity ratio (MR) ([2]; TA 102, +S9, 0.98 μmol/plate): 1.03
number of revertants per plate ([2]; TA 102, +S9, 0.98 μmol/plate): 385 ± 33.1 revertants/plate
mutagenicity ratio (MR) ([2]; TA 102, +S9, 1.96 μmol/plate): 0.87
number of revertants per plate ([2]; TA 102, +S9, 1.96 μmol/plate): 323 ± 5.54 revertants/plate
mutagenicity ratio (MR) ([2]; TA 102, +S9, 3.92 μmol/plate): 1.13
number of revertants per plate ([2]; TA 102, +S9, 3.92 μmol/plate): 423.7 ± 22 revertants/plate
mutagenicity ratio (MR) ([2]; TA 102, +S9, 7.85 μmol/plate): 1.03
number of revertants per plate ([2]; TA 102, +S9, 7.85 μmol/plate): 387 ± 14.4 revertants/plate
mutagenicity ratio (MR) ([2]; TA 102, +S9, 15.7 μmol/plate): 0.8
number of revertants per plate ([2]; TA 102, +S9, 15.7 μmol/plate): 300 ± 4.9 revertants/plate
mutagenicity ratio (MR) ([2]; TA 102, −S9, 0.98 μmol/plate): 1.12
number of revertants per plate ([2]; TA 102, −S9, 0.98 μmol/plate): 222 ± 12 revertants/plate
mutagenicity ratio (MR) ([2]; TA 102, −S9, 1.96 μmol/plate): 1.22
number of revertants per plate ([2]; TA 102, −S9, 1.96 μmol/plate): 241 ± 13 revertants/plate
mutagenicity ratio (MR) ([2]; TA 102, −S9, 3.92 μmol/plate): 1.27
number of revertants per plate ([2]; TA 102, −S9, 3.92 μmol/plate): 251 ± 19.2 revertants/plate
mutagenicity ratio (MR) ([2]; TA 102, −S9, 7.85 μmol/plate): 1.17
number of revertants per plate ([2]; TA 102, −S9, 7.85 μmol/plate): 232 ± 13.1 revertants/plate
mutagenicity ratio (MR) ([2]; TA 102, −S9, 15.7 μmol/plate): 1.06
number of revertants per plate ([2]; TA 102, −S9, 15.7 μmol/plate): 210 ± 23 revertants/plate
Average (abdominal writhings) [3]: 30.4

O=C1c2ccccc2C(=O)N1CCO[N+](=O)[O-] [IB, 2-(1,3-dioxo-1,3-dihydro-2H-isoindol-2-yl)ethyl nitrate]
mutagenicity ratio (MR) ([1]; TA 100, +S9, 0.01 μmol/plate): 3.4
number of revertants per plate ([1]; TA 100, +S9, 0.01 μmol/plate): 354 ± 6.9 revertants/plate
mutagenicity ratio (MR) ([1]; TA 100, +S9, 0.021 μmol/plate): 3.22
number of revertants per plate ([1]; TA 100, +S9, 0.021 μmol/plate): 335 ± 10.8 revertants/plate
mutagenicity ratio (MR) ([1]; TA 100, +S9, 0.042 μmol/plate): 3.8
number of revertants per plate ([1]; TA 100, +S9, 0.042 μmol/plate): 397 ± 25.9 revertants/plate
mutagenicity ratio (MR) ([1]; TA 100, +S9, 0.085 μmol/plate): 3.8
number of revertants per plate ([1]; TA 100, +S9, 0.085 μmol/plate): 395 ± 40.2 revertants/plate
mutagenicity ratio (MR) ([1]; TA 100, +S9, 0.17 μmol/plate): 2.5
number of revertants per plate ([1]; TA 100, +S9, 0.17 μmol/plate): 261 ± 11 revertants/plate
mutagenicity ratio (MR) ([1]; TA 100, −S9, 0.01 μmol/plate): 1.49
number of revertants per plate ([1]; TA 100, −S9, 0.01 μmol/plate): 171 ± 48.9 revertants/plate
mutagenicity ratio (MR) ([1]; TA 100, −S9, 0.021 μmol/plate): 1.74
number of revertants per plate ([1]; TA 100, −S9, 0.021 μmol/plate): 200 ± 23.3 revertants/plate
mutagenicity ratio (MR) ([1]; TA 100, −S9, 0.042 μmol/plate): 1.94
number of revertants per plate ([1]; TA 100, −S9, 0.042 μmol/plate): 223 ± 45.04 revertants/plate
mutagenicity ratio (MR) ([1]; TA 100, −S9, 0.085 μmol/plate): 1.8
number of revertants per plate ([1]; TA 100, −S9, 0.085 μmol/plate): 206 ± 30.2 revertants/plate
mutagenicity ratio (MR) ([1]; TA 100, −S9, 0.17 μmol/plate): 1.43
number of revertants per plate ([1]; TA 100, −S9, 0.17 μmol/plate): 165 ± 11.1 revertants/plate
mutagenicity ratio (MR) ([2]; TA 102, +S9, 0.01 μmol/plate): 1.13
number of revertants per plate ([2]; TA 102, +S9, 0.01 μmol/plate): 249 ± 11.7 revertants/plate
mutagenicity ratio (MR) ([2]; TA 102, +S9, 0.021 μmol/plate): 1.22
number of revertants per plate ([2]; TA 102, +S9, 0.021 μmol/plate): 269 ± 10.6 revertants/plate
mutagenicity ratio (MR) ([2]; TA 102, +S9, 0.042 μmol/plate): 1.09
number of revertants per plate ([2]; TA 102, +S9, 0.042 μmol/plate): 239 ± 22.5 revertants/plate
mutagenicity ratio (MR) ([2]; TA 102, +S9, 0.085 μmol/plate): 1.12
number of revertants per plate ([2]; TA 102, +S9, 0.085 μmol/plate): 247 ± 21.4 revertants/plate
mutagenicity ratio (MR) ([2]; TA 102, +S9, 0.17 μmol/plate): 0.97
number of revertants per plate ([2]; TA 102, +S9, 0.17 μmol/plate): 214 ± 32 revertants/plate
mutagenicity ratio (MR) ([2]; TA 102, −S9, 0.01 μmol/plate): 1.22
number of revertants per plate ([2]; TA 102, −S9, 0.01 μmol/plate): 394 ± 30 revertants/plate
mutagenicity ratio (MR) ([2]; TA 102, −S9, 0.021 μmol/plate): 1.55
number of revertants per plate ([2]; TA 102, −S9, 0.021 μmol/plate): 452 ± 23 revertants/plate
mutagenicity ratio (MR) ([2]; TA 102, −S9, 0.042 μmol/plate): 1.25
number of revertants per plate ([2]; TA 102, −S9, 0.042 μmol/plate): 502 ± 14 revertants/plate
mutagenicity ratio (MR) ([2]; TA 102, −S9, 0.085 μmol/plate): 1.34
number of revertants per plate ([2]; TA 102, −S9, 0.085 μmol/plate): 405 ± 24 revertants/plate
mutagenicity ratio (MR) ([2]; TA 102, −S9, 0.17 μmol/plate): 1.54
number of revertants per plate ([2]; TA 102, −S9, 0.17 μmol/plate): 433 ± 35.4 revertants/plate
Average (abdominal writhings) [3]: 39.2
Inhibition % (abdominal writhing) [3]: 23.22%

Source: patent US8314255B2, “Use of phthalimide and/or sulphonamide derivatives in the treatment of diseases which require reducing the TNF- α levels and an exogenous source of nitric oxide, phthalimide derivatives, sulphonamide derivatives, and a method for obtaining a sulphonamide derivative” (priority 2007, dated 2012)
